We go through 24 compounds from patent US20110230476A1, “PI3 KINASE INHIBITORS AND USES THEREOF” (AVILA THERAPEUTICS, INC., priority 2009, published 2011).

One experiment addresses T1, PI3Kα (p110α/p85α) (Homo sapiens, UniProt P42336).
T1 construct: purchased BPS Bioscience (San Diego, Calif.) or Millipore (Billerica, Mass.)
Put plainly: HTRF assay, potency against active PI3Kα. The experiment is classed as biochemical. As to conditions: HTRF; [ATP]=50 μM, [di-C8-PIP2]=10 μM; 30 min pre-incubation; read-out: PI3Kα Inhibition. In outline:
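Active p110/p85α lipid kinase reactions were started with ATP and run 30-60 minutes at 25 °C, then stopped and developed with HTRF detection mix. HTRF ratio converted to % inhibition against ±enzyme controls; IC50 from log[inhibitor] vs response, variable slope.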
Background: In TR-FRET formats the signal depends on donor and acceptor labels being close together.

Another experiment deals with Phospho-Akt(Ser473). Put plainly: Dose response in SKOV3 cells as determined by in-cell Western. The experiment is classed as cell-based. As to conditions: Homo sapiens, SK-OV-3; SKOV3 cells, 1 hr; read-out: pAKT Inhibition in cell Western. On the procedure: Dose Response in SKOV3 Cells as Determined by in-Cell Western
Twenty four hours later the media was removed and replaced with 100 ul media containing test compound or control compound and cells were returned to the incubator for 1 hr. At the end of the hour, the media was removed and the cells were washed once with PBS, then fixed for 20 minutes at room temperature in 4% formaldehyde in PBS. The formaldehyde was removed and cells were washed 5 times for 5 minutes with 100 ul of Permeabilization Buffer (PBS+0.1% Triton X-100) at room temperature with gentle shaking. The last wash was removed and replaced with 150 ul of Odyssey Blocking Buffer (Li-Cor, Lincoln, Nebr.) and incubated for 90 minutes at room temperature with gentle shaking.
The Blocking Buffer was then replaced with 50 ul of primary antibody mix (rabbit anti-Phospho-Akt(Ser473) at 1:100 (Cell Signaling Technology, Boston, Mass.) and mouse anti-tubulin at 1:5000 (Sigma Aldrich, St. Louis, Mo.) diluted in Odyssey Blocking Buffer) and incubated overnight at room temperature with gentle shaking.
The next morning, the antibody mix was removed and the wells were washed 5 times for 5 minutes with PBS+0.1% Tween-20. The last wash was replaced with 50 ul of secondary antibody mix (goat anti-rabbit-IRDye-680 and goat anti-mouse-IRDye-800 (Li-Cor), both diluted 1:1000 in Odyssey Blocking Buffer+0.2% Tween-20) and incubated for 1 hour at room temperature with gentle shaking. The antibody mix was removed and the wells were washed 5 times for 5 minutes in PBS+0.1% Tween-20, then 1 time with ddH2O.
The plates were scanned on an Odyssey machine (Li-Cor) with a 3 mm focus offset at an intensity of 8 in both channels and the data was analyzed using the Odyssey software.

T1 sequence (P42336 whole entry): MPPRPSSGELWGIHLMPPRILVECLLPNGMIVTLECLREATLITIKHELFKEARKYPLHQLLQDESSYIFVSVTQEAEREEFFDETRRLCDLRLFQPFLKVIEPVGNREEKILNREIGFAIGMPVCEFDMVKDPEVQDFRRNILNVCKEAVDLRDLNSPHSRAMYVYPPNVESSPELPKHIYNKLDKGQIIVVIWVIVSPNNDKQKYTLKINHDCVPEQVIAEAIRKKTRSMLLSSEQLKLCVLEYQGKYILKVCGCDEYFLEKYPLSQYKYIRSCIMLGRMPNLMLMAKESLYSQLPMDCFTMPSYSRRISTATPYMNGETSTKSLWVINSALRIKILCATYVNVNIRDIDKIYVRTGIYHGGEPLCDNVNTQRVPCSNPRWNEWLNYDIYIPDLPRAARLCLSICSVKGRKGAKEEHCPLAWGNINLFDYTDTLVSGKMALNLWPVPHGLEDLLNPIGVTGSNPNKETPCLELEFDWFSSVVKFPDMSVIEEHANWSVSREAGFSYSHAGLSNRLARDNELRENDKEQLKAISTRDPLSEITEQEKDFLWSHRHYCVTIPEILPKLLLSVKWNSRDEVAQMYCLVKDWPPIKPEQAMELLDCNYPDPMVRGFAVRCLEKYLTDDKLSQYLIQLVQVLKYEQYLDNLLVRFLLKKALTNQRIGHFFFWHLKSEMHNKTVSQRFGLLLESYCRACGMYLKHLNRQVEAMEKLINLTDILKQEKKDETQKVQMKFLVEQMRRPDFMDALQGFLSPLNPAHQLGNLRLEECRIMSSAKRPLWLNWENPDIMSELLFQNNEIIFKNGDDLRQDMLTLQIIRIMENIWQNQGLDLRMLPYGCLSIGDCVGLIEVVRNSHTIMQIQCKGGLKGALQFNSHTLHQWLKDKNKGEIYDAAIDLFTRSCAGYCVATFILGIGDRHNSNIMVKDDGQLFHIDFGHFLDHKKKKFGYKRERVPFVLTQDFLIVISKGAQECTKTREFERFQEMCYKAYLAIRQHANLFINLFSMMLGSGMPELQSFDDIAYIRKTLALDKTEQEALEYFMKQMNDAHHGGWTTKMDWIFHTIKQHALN
T1 sequence (P27986 whole entry partner): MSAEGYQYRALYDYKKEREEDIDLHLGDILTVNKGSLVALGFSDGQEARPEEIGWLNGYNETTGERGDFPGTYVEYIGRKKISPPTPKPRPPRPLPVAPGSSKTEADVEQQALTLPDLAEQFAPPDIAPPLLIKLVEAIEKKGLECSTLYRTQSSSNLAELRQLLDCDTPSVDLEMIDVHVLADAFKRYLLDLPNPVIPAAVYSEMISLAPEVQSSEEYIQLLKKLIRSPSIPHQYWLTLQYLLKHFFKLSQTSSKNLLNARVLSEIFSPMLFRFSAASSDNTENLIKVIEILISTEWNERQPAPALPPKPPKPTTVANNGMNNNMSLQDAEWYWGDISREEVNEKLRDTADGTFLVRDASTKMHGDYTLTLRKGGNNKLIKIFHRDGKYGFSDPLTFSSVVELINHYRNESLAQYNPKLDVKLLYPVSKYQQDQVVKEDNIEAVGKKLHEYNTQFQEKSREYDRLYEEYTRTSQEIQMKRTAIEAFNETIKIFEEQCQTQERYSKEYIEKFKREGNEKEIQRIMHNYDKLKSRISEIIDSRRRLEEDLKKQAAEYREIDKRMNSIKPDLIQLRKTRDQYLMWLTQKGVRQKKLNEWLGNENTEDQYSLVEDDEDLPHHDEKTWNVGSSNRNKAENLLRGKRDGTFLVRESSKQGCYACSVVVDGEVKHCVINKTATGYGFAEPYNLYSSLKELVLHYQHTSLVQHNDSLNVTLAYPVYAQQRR

For `C=CC(=O)Nc1ccc(C(=O)N2CCN(Cc3cc4nc(-c5cccc6[nH]ncc56)nc(N5CCOCC5)c4s3)CC2)cc1` [II-a-117, N-(4-(4-((2-(1H-indazol-4-yl)-4-morpholinothieno[3,2-d]pyrimidin-6-yl)methyl)piperazine-1-carbonyl)phenyl)acrylamide], the IC50 on PI3Kα (p110α/p85α) was 100 to 1000 nM. Further, in the experiment with Phospho-Akt(Ser473), the EC50 lay within 10 to 100 nM. As for `C=C(CC)C(=O)CCC(=O)N1CCN(c2ccc(-c3ccnc4ccc(/C=C5\SC(=O)NC5=O)cc34)cn2)CC1` [V-20, (Z)-5-((4-(6-(4-(5-methylene-4-oxoheptanoyl)piperazin-1-yl)pyridin-3-yl)quinolin-6-yl)methylene)thiazolidine-2,4-dione], at PI3Kα (p110α/p85α), the IC50 is below 10 nM. For the same compound, the EC50 with Phospho-Akt(Ser473) lay in the range of 10 to 100 nM. Consider `O=C(/C=C/c1cccs1)CCC(=O)N1CCN(Cc2cc3nc(-c4cccc5[nH]ncc45)nc(N4CCOCC4)c3s2)CC1` [II-a-126, (E)-1-(4-((2-(1H-indazol-4-yl)-4-morpholinothieno[3,2-d]pyrimidin-6-yl)methyl)piperazin-1-yl)-6-(thiophen-2-yl)hex-5-ene-1,4-dione], for which the IC50 on PI3Kα (p110α/p85α) fell in the range of 100 to 1000 nM. Besides, the EC50 in the experiment with Phospho-Akt(Ser473) was at most 10 nM.

On to `CC(C)=CC(=O)CCC(=O)NCc1ccc(-c2cc3nc(-c4cccc(O)c4)nc(N4CCOCC4)c3s2)cc1` [II-a-122, N-(4-(2-(3-hydroxyphenyl)-4-morpholinothieno[3,2-d]pyrimidin-6-yl)benzyl)-6-methyl-4-oxohept-5-enamide], for which the IC50 at PI3Kα (p110α/p85α) was in the range of 10 to 100 nM. The EC50 in the experiment with Phospho-Akt(Ser473) lay within 100 to 1000 nM. On to `C=CC(=O)Nc1ccc(CCNC(=O)c2cc3nc(-c4cnc(N)nc4)cc(N4CCOCC4)c3s2)cc1` [II-g-1, N-(4-acrylamidophenethyl)-5-(2-aminopyrimidin-5-yl)-7-morpholinothieno[3,2-b]pyridine-2-carboxamide], for which, on PI3Kα (p110α/p85α), the IC50 is 100 to 1000 nM. Besides, the EC50 in the experiment with Phospho-Akt(Ser473) is 10 to 100 nM.

On to `O=C(/C=C/c1ccccc1)CCCC(=O)N1CC=C(c2cc3nc(-c4cccc5[nH]ncc45)nc(N4CCOCC4)c3s2)CC1` [II-a-137, (E)-1-(4-(2-(1H-indazol-4-yl)-4-morpholinothieno[3,2-d]pyrimidin-6-yl)-5,6-dihydropyridin-1(2H)-yl)-7-phenylhept-6-ene-1,5-dione], for which the IC50 at PI3Kα (p110α/p85α) is 10 to 100 nM. In addition, the EC50 with Phospho-Akt(Ser473) fell in the range of 10 to 100 nM. Turning to `C=CC(=O)Nc1ccc(S(=O)(=O)N2CCN(Cc3cc4nc(-c5cccc6[nH]ncc56)nc(N5CCOCC5)c4s3)CC2)cc1` [II-a-118, N-(4-(4-((2-(1H-indazol-4-yl)-4-morpholinothieno[3,2-d]pyrimidin-6-yl)methyl)piperazin-1-ylsulfonyl)phenyl)acrylamide], the IC50 at PI3Kα (p110α/p85α) lay within 100 to 1000 nM. The EC50 in the experiment on Phospho-Akt(Ser473) lay in the range of 100 to 1000 nM. `CC(C)=CC(=O)CCCC(=O)N1CCC2(CC1)CN(c1cc(-c3cnc(N)nc3)nc(N3CCOCC3)c1)C2` [XII-41, 1-(2-(2-(2-aminopyrimidin-5-yl)-6-morpholinopyridin-4-yl)-2,7-diazaspiro[3.5]nonan-7-yl)-7-methyloct-6-ene-1,5-dione]: the IC50 at PI3Kα (p110α/p85α) is above 1000 nM. Further, in the experiment with Phospho-Akt(Ser473), the EC50 is 100 to 1000 nM. On to `CNC(=O)Nc1ccc(-c2nc(N3CCOCC3)c3cnn(C4CCN(C(=O)OC)CC4)c3n2)cc1` [VII-ref], for which the EC50 with Phospho-Akt(Ser473) was in the range of 10 to 100 nM. Regarding `Nc1ncnc2c1c(-c1cnc3[nH]ccc3c1)nn2C1CCCC1` [XI-ref], in the experiment on Phospho-Akt(Ser473), the EC50 fell in the range of 10 to 100 nM. As to `COc1ncc(-c2ccc3nccc(-c4ccncc4)c3c2)cc1NS(=O)(=O)c1ccc(F)cc1F` [X-ref], the EC50 in the experiment on Phospho-Akt(Ser473) was at most 10 nM. Consider `CC(C)=CC(=O)C(=O)N1CCC(C#Cc2cc(-c3cnc(N)nc3)nc(N3CCOCC3)c2)CC1` [XII-32, 1-(4-((2-(2-aminopyrimidin-5-yl)-6-morpholinopyridin-4-yl)ethynyl)piperidin-1-yl)-4-methylpent-3-ene-1,2-dione], for which the IC50 on PI3Kα (p110α/p85α) was 100 to 1000 nM. As to `CC(C)=CC(=O)C(=O)Nc1ccc(C#Cc2cc(-c3cnc(N)nc3)nc(N3CCOCC3)c2)cc1` [XII-22, N-(4-((2-(2-aminopyrimidin-5-yl)-6-morpholinopyridin-4-yl)ethynyl)phenyl)-4-methyl-2-oxopent-3-enamide], the IC50 at PI3Kα (p110α/p85α) is below 10 nM. In the case of `C/C(=C\c1ccccc1)C(=O)CCC(=O)N1CCN(Cc2cc3nc(-c4cccc5[nH]ncc45)nc(N4CCOCC4)c3s2)CC1` [II-a-168, (E)-1-(4-((2-(1H-indazol-4-yl)-4-morpholinothieno[3,2-d]pyrimidin-6-yl)methyl)piperazin-1-yl)-5-methyl-6-phenylhex-5-ene-1,4-dione], on PI3Kα (p110α/p85α), the IC50 lay within 100 to 1000 nM. The same measure, in the same setting: for `C=CC(=O)NCc1ccc(-c2cc3nc(-c4cccc5[nH]ncc45)nc(N4CCOCC4)c3s2)cc1` [II-a-107, N-(4-(2-(1H-indazol-4-yl)-4-morpholinothieno[3,2-d]pyrimidin-6-yl)benzyl)acrylamide] the value was 100 to 1000 nM.

With `CCC/C=C/C(=O)CCC(=O)N1CCN(Cc2cc3nc(-c4cccc5[nH]ncc45)nc(N4CCOCC4)c3s2)CC1` [II-a-63, (E)-1-(4-((2-(1H-indazol-4-yl)-4-morpholinothieno[3,2-d]pyrimidin-6-yl)methyl)piperazin-1-yl)non-5-ene-1,4-dione], the IC50 at PI3Kα (p110α/p85α) is below 10 nM. Regarding `CC(C)=CC(=O)c1ccc(CCNC(=O)c2cc(-c3cnc(N)nc3)nc(N3CCOCC3)c2)cc1` [XII-10, 2-(2-aminopyrimidin-5-yl)-N-(4-(3-methylbut-2-enoyl)phenethyl)-6-morpholinoisonicotinamide], the IC50 at PI3Kα (p110α/p85α) lay within 100 to 1000 nM. As to `O=C(/C=C/c1ncc[nH]1)CCC(=O)N1CCN(Cc2cc3nc(-c4cccc5[nH]ncc45)nc(N4CCOCC4)c3s2)CC1` [II-a-125, (E)-1-(4-((2-(1H-indazol-4-yl)-4-morpholinothieno[3,2-d]pyrimidin-6-yl)methyl)piperazin-1-yl)-6-(1H-imidazol-2-yl)hex-5-ene-1,4-dione], at PI3Kα (p110α/p85α), the IC50 lay within 100 to 1000 nM. On to `C=CC(=O)N[C@H]1CC[C@H](C(=O)N2CCN(Cc3cc4nc(-c5cccc6[nH]ncc56)nc(N5CCOCC5)c4s3)CC2)CC1` [II-a-100], for which the IC50 on PI3Kα (p110α/p85α) lay within 100 to 1000 nM. Turning to `CC(C)=CC(=O)CCCC(=O)N1CCN(c2cc(-c3cnc(N)nc3)nc(N3CCOCC3)c2)CC1` [XII-30, 1-(4-(2-(2-aminopyrimidin-5-yl)-6-morpholinopyridin-4-yl)piperazin-1-yl)-7-methyloct-6-ene-1,5-dione], at PI3Kα (p110α/p85α), the IC50 fell in the range of 100 to 1000 nM. The same measure, in the same setting: the value for `C=CC(=O)NCC(=O)NCc1ccc(-c2cc3nc(-c4cccc5[nH]ncc45)nc(N4CCOCC4)c3s2)cc1` [II-a-128, N-(2-(4-(2-(1H-indazol-4-yl)-4-morpholinothieno[3,2-d]pyrimidin-6-yl)benzylamino)-2-oxoethyl)acrylamide] was 100 to 1000 nM; that for `O=C(/C=C/c1ccccc1)CCC(=O)N1CC=C(c2cc3nc(-c4cccc5[nH]ncc45)nc(N4CCOCC4)c3s2)CC1` [II-a-135, (E)-1-(4-(2-(1H-indazol-4-yl)-4-morpholinothieno[3,2-d]pyrimidin-6-yl)-5,6-dihydropyridin-1(2H)-yl)-6-phenylhex-5-ene-1,4-dione] was 100 to 1000 nM. The same measure, in the same setting: the value for `CC(C)=CC(=O)C1(C(=O)N2CCC3(CC2)CCN(c2cc(-c4cnc(N)nc4)nc(N4CCOCC4)c2)CC3)CC1` [XII-36, 1-(1-(9-(2-(2-aminopyrimidin-5-yl)-6-morpholinopyridin-4-yl)-3,9-diazaspiro[5.5]undecane-3-carbonyl)cyclopropyl)-3-methylbut-2-en-1-one] was 100 to 1000 nM.

Take `COc1c(OCCOCCNS(C)(=O)=O)ccc2c1N=C(NC(=O)c1cccnc1)N1CCN=C21` [IX-ref]: the EC50 with Phospho-Akt(Ser473) is 10 to 100 nM.
